In assay [1] the target is DNA-3-methyladenine glycosylase (Homo sapiens) (UniProt P29372). The conditions noted are these: Compound Concentration 10.0 uM, Hit No.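 Note: enzyme assay where MPG cuts a quenched duplex DNA oligonucleotide probe, paired with APE1 for strand incision and turnover, read as fluorescence at 594 nm.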
Description: Inhibition of MPG by quantifying inhibition of MPG-mediated cleavage and dissociation of quenched duplex DNA oligonucleotides, measured as fluorescence at 594 nm. To generate a functional strand incision and increase turn-over this assay is coupled to APE1.
Assay [2] has as its target T1, Endonuclease 8-like 2 (Homo sapiens) (UniProt Q969S2).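 Note: fluorescence at 594 nm reports NEIL2 cutting and release of a quenched double-stranded DNA oligo substrate, reduced signal read as inhibition.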
T1 sequence (whole entry): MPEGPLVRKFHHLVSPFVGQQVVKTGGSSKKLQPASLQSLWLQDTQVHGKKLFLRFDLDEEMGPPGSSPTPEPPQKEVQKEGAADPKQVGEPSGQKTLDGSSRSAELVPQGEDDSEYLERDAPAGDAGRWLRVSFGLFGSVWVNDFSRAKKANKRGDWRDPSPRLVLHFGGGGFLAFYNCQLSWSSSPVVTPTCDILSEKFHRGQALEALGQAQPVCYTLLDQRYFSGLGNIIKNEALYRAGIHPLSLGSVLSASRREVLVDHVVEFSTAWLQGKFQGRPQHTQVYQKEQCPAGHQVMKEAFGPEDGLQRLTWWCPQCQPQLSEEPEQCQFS
The note with it: Compound Concentration 10.0 uM, Hit No.
Description: Inhibition of NEIL2 by quantifying inhibition of NEIL2-mediated cleavage and dissociation of quenched duplex DNA oligonucleotides, measured as fluorescence at 594 nm.

Assay [3] has as its target T2, Single-strand selective monofunctional uracil DNA glycosylase (Homo sapiens) (UniProt Q53HV7).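 Note: enzymatic SMUG1 assay coupled with APE1, reading fluorescence at 594 nm released when a quenched double-stranded DNA oligonucleotide substrate is cleaved and separated.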
T2 sequence (whole entry): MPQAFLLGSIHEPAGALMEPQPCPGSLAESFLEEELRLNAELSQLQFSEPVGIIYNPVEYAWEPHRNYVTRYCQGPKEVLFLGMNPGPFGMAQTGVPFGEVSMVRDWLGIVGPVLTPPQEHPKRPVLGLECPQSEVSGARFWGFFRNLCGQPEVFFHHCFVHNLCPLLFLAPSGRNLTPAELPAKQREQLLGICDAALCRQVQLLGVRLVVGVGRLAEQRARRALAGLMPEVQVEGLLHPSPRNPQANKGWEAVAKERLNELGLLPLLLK
The note with it: Compound Concentration 10.0 uM.
Description: Inhibition of SMUG1 by quantifying inhibition of SMUG1-mediated cleavage and dissociation of quenched duplex DNA oligonucleotides, measured as fluorescence at 594 nm. To generate a functional strand incision and increase turn-over this assay is coupled to APE1.

Assay [4] concerns the target T3, Endonuclease III-like protein 1 (Homo sapiens) (UniProt P78549).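 Note: enzyme assay tracking NTHL1 cutting and release of a quenched double-stranded DNA oligo substrate, read as fluorescence at 594 nm.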
T3 sequence (whole entry): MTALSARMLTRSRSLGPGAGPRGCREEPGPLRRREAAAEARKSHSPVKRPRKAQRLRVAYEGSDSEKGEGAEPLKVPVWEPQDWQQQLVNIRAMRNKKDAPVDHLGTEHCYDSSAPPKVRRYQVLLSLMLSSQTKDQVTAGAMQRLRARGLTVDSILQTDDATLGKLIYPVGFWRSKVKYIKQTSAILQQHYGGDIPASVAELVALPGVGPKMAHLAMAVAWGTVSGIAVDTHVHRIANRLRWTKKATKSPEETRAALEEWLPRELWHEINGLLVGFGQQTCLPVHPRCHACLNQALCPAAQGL
The note with it: Compound Concentration 10.0 uM, Hit No.
Description: Inhibition of NTHL1 by quantifying inhibition of NTHL1-mediated cleavage and dissociation of quenched duplex DNA oligonucleotides, measured as fluorescence at 594 nm.

The target of assay [5] is Uracil-DNA glycosylase (Homo sapiens) (UniProt P13051). The note with it: Compound Concentration 10.0 uM.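 Note: UNG excision on a quenched double-stranded DNA oligo probe, with APE1 added for strand incision and turnover, read as fluorescence at 594 nm as strands separate.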
Description: Inhibition of UNG by quantifying inhibition of UNG-mediated cleavage and dissociation of quenched duplex DNA oligonucleotides, measured as fluorescence at 594 nm. To generate a functional strand incision and increase turn-over this assay is coupled to APE1.
For assay [6], the target named is N-glycosylase/DNA lyase (Homo sapiens) (UniProt O15527). The conditions noted are these: Compound Concentration 10.0 uM.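 Note: OGG1 cleavage of a quenched duplex DNA oligonucleotide, coupled to APE1 for strand incision, read as fluorescence at 594 nm.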
Description: Inhibition of OGG1 by quantifying inhibition of OGG1-mediated cleavage and dissociation of quenched duplex DNA oligonucleotides, measured as fluorescence at 594 nm. To generate a functional strand incision and increase turn-over this assay is coupled to APE1.
The target in assay [7] is Methyl-CpG-binding domain protein 4 (Homo sapiens) (UniProt O95243). The conditions noted are these: Compound Concentration 10.0 uM, Hit No.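 Note: MBD4 activity read as fluorescence at 594 nm from cleavage and release of a quenched duplex DNA oligonucleotide, with APE1 coupled to incise the strand and raise turnover.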
Description: Inhibition of MBD4 by quantifying inhibition of MBD4-mediated cleavage and dissociation of quenched duplex DNA oligonucleotides, measured as fluorescence at 594 nm. To generate a functional strand incision and increase turn-over this assay is coupled to APE1.
The target in assay [8] is G/T mismatch-specific thymine DNA glycosylase (Homo sapiens) (UniProt Q13569). The conditions noted are these: Compound Concentration 10.0 uM, Hit No.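 Note: human TDG cleavage of quenched duplex DNA oligonucleotides coupled to APE1, strand release read as fluorescence at 594 nm, inhibition of TDG activity.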
Description: Inhibition of TDG by quantifying inhibition of TDG-mediated cleavage and dissociation of quenched duplex DNA oligonucleotides, measured as fluorescence at 594 nm. To generate a functional strand incision and increase turn-over this assay is coupled to APE1.
Assay [9] concerns the target Endonuclease 8-like 1 (Homo sapiens) (UniProt Q96FI4). The note with it: Compound Concentration 10.0 uM, Hit No.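 Note: fluorescence at 594 nm from quenched duplex DNA oligonucleotides released by NEIL1 cleavage and strand separation, reported as reduction of this enzyme activity.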
Description: Inhibition of NEIL1 by quantifying inhibition of NEIL1-mediated cleavage and dissociation of quenched duplex DNA oligonucleotides, measured as fluorescence at 594 nm.

Where a SMILES comes first, the peptide text is derived from it. [ ]: non-standard residue; d: D form. The star is where a group is joined. dPhe(4-NHCONH2) = NC(=O)Nc1ccc(C[C@@H](N)C(=O)O)cc1; Dihydroorotyl(S) = O=C1C[C@@H](C(=O)*)NC(=O)N1; dPhe(4-Cl) = N[C@H](Cc1ccc(Cl)cc1)C(=O)O; Phe(4-NH2) = Nc1ccc(C[C@H](N)C(=O)O)cc1; d2Nal = N[C@H](Cc1ccc2ccccc2c1)C(=O)O; Lys(iPr) = CC(C)NCCCC[C@H](N)C(=O)O; d3Pal = N[C@H](Cc1cccnc1)C(=O)O

Sequence of Methyl-CpG-binding domain protein 4 (Homo sapiens) (O95243 whole entry, the tested form may be a part): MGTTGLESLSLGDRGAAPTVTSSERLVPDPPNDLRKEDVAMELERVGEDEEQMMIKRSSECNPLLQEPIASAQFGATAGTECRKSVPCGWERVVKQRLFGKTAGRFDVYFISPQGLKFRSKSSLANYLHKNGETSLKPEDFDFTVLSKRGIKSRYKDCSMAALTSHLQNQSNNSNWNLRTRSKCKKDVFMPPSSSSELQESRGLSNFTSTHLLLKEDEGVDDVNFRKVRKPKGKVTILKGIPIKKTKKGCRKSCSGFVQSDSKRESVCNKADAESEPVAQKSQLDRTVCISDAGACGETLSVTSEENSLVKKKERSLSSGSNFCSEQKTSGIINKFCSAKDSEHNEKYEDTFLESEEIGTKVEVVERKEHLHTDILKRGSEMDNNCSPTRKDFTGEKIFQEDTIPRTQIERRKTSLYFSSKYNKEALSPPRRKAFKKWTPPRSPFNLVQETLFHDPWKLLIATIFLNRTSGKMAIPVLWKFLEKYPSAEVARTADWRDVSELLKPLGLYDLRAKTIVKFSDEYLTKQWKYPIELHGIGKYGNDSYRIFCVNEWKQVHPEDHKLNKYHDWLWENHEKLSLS
Sequence of DNA-3-methyladenine glycosylase (Homo sapiens) (P29372 whole entry): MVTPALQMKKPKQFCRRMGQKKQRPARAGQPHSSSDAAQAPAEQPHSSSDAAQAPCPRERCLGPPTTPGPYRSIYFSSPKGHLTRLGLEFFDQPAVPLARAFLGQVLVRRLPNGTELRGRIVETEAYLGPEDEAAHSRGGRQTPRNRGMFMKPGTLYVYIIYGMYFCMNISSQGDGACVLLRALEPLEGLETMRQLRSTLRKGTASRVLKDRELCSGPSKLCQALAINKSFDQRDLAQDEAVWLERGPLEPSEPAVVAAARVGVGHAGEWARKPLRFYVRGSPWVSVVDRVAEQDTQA
Sequence of N-glycosylase/DNA lyase (Homo sapiens) (O15527 whole entry, the tested form may be a part): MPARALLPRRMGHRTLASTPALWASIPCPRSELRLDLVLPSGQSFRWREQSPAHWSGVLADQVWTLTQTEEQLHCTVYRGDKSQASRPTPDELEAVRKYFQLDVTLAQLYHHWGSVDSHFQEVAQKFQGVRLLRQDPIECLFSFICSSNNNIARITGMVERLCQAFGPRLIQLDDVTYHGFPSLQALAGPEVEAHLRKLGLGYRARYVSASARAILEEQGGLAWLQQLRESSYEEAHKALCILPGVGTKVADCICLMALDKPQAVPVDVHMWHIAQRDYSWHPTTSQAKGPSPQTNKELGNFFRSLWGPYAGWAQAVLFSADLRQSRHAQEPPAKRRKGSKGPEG
Sequence of Uracil-DNA glycosylase (Homo sapiens) (P13051 whole entry): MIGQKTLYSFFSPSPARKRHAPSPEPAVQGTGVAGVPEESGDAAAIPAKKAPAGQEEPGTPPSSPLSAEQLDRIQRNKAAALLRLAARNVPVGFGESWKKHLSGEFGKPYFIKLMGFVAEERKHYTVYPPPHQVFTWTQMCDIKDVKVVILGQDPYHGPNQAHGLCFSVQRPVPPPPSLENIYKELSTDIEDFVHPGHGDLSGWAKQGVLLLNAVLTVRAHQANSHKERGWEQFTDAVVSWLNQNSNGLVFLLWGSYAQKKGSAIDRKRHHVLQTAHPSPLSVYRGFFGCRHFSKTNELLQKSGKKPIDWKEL
Sequence of G/T mismatch-specific thymine DNA glycosylase (Homo sapiens) (Q13569 whole entry): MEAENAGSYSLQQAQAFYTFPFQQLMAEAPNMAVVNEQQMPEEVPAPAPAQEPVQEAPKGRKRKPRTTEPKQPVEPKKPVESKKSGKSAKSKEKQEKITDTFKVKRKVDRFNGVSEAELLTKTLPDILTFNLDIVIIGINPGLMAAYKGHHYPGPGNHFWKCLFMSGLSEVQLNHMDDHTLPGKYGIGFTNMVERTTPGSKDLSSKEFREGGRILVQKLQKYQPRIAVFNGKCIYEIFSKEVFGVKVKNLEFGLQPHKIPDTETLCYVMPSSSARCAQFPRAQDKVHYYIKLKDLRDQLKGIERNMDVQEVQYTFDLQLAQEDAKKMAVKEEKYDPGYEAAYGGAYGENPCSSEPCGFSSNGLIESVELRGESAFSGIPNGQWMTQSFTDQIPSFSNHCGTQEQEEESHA
Sequence of Endonuclease 8-like 1 (Homo sapiens) (Q96FI4 whole entry): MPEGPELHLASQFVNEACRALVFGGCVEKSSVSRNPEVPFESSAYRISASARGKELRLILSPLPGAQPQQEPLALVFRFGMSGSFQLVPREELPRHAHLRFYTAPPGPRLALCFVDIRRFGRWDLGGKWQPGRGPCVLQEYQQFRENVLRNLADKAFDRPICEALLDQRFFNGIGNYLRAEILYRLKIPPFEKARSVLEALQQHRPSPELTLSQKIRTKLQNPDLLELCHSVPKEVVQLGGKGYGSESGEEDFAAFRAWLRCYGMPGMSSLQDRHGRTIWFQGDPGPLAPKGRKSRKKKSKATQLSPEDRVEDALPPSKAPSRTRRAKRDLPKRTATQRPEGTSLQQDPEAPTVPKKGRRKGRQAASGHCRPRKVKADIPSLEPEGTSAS

Consider `N#Cc1c[nH]c2c(C(=O)N3CCN(CCc4ccc(F)cc4)CC3)cccc12`, for which the inhibition in assay [1] is -7.3%; in [2], -4.73%; in assay [3] (Hit No), -8.12%; in [4] it was -5.41%; in assay [5] (Hit No), -9.6%; in assay [6] (Hit No), -8.41%.
As to `Cc1cc(-c2nncc3c(C(C)(C)C)c(OCc4ncnn4C)nn23)no1`, the inhibition was -9.01% in assay [1]; -4.17% in [2]; -0.184% in assay [3] (Hit No); -4.07% in [7]; 1.39% in assay [4]; -3.18% in assay [5] (Hit No). Moreover, the inhibition is -4.49% in assay [8] and -1.32% in assay [9].
Take `O=C(N[C@H]1CN2CCC1CC2)c1ccc(Cl)cc1`: the inhibition in assay [1] is -7.18%; in assay [2], 3.98%; in assay [3] (Hit No), 3.71%; in assay [7], 12.6%; in assay [4], 15.4%; in assay [5] (Hit No) it was -1.13%. The values for the inhibition in assay [8] and in assay [9] were 21.4% and 1.79%, respectively.
Turning to `c1nc(CC2CCNCC2)c[nH]1`, the inhibition is -7.11% in [1]; -0.983% in [2]; -3.22% in assay [7]; 7.05% in assay [4]; -4.12% in assay [6] (Hit No); 10.2% in assay [8]. For the same molecule, in assay [9], the inhibition turned out to be 7.21%.
Consider `O=S1(=O)c2cccc3cccc(c23)N1CCCN1CCN(c2ccc(F)cc2)CC1`, for which the inhibition in [1] was -8.54%; in assay [2], -0.483%; in assay [3] (Hit No), 12.8%; in assay [4], 18.1%; in [5] (Hit No), -2.78%; in assay [6] (Hit No), 7.99%. For the same molecule, the inhibition is 19% in assay [8] and -4.8% in assay [9].
As to `CC1(C)CC(CN2CCC(F)(CNC(=O)c3cc(Cl)cc(Cl)c3)CC2)CCO1` (stereo not drawn), the inhibition in [1] is 9.94%; in assay [2], 6.78%; in [3] (Hit No), 8.24%; in assay [7] it was 12.4%; in assay [4], -3.56%; in assay [5] (Hit No), -1.24%. In addition, the inhibition was 12.8% in [8] and 6.23% in [9].
As to `COc1ccccc1-n1nc(C2CC(C)(C)OC(C)(C)C2)cc1-c1ccc(Cl)cc1`, the inhibition was -7.01% in assay [1]; -4.68% in assay [2]; -1.99% in [7]; 12.1% in [4]; -3.03% in assay [5] (Hit No); -6.29% in assay [8]. The inhibition in [9] was determined as 11.3%.
`COc1ccc(CCN(C)CCCC(C#N)(c2cc(OC)c(OC)c(OC)c2)C(C)C)cc1OC` (stereo not drawn): the inhibition in assay [1] was -3.7%; in assay [2], 2.71%; in assay [3] (Hit No), -0.579%; in assay [4] it was 3.04%; in assay [5] (Hit No), -3.3%; in assay [6] (Hit No) it was -7.76%. Besides, the figures for the inhibition in [8] and in assay [9] were -7.93% and 5.05%, respectively.
Consider `O=C(NCC1(N2CCN(c3ccccc3)CC2)CCOCC1)c1cccnc1Sc1ccccc1`, for which the inhibition in assay [1] was 1.32%; in assay [2], -7.99%; in assay [3] (Hit No), 2.13%; in assay [4] it was 23.7%; in assay [5] (Hit No), 1.03%; in assay [8] it was -0.15%. The inhibition in assay [9] was -4.14%.
In the case of `CC(=O)N[C@H](Cc1ccc2ccccc2c1)C(=O)N[C@H](Cc1ccc(Cl)cc1)C(=O)N[C@H](Cc1cccnc1)C(=O)N[C@@H](CO)C(=O)N[C@@H](Cc1ccc(NC(=O)[C@@H]2CC(=O)NC(=O)N2)cc1)C(=O)N[C@H](Cc1ccc(NC(N)=O)cc1)C(=O)N[C@@H](CC(C)C)C(=O)N[C@@H](CCCCNC(C)C)C(=O)N1CCC[C@H]1C(=O)N[C@H](C)C(N)=O` (Ac-[d2Nal][dPhe(4-Cl)][d3Pal]S[Phe(4-NH2)](Dihydroorotyl(S))[dPhe(4-NHCONH2)]L[Lys(iPr)]P[dA]-NH2), the inhibition amounted to 22.6% in [1]; 25.7% in assay [2]; 53.4% in assay [3] (Hit Yes); 7.79% in assay [4]; 86.3% in assay [5] (Hit Yes); 98.4% in assay [6] (Hit Yes). In addition, the inhibition in [8] was determined as 56.9%.
Regarding `CC[C@@H](C[C@H]1COC(N)=N1)c1ccccc1`, the inhibition is -5.21% in assay [1]; -1.88% in assay [2]; 4.05% in [7]; 17.9% in assay [4]; -3.91% in assay [5] (Hit No); 11.1% in [8]. Besides, in assay [9], the inhibition came to 8.31%.
Regarding `CCCN1CCO[C@H]2c3cc(O)ccc3OC[C@@H]21`, the inhibition in [1] is 3.27%; in assay [2] it was -7.97%; in [7], -3.57%; in [4] it was 7.05%; in assay [6] (Hit No), -4.1%; in [8], -3.98%. In addition, in assay [9], the inhibition turned out to be 8.1%.
Regarding `C[C@H](N)Cn1ccc2cc(F)c(Cl)cc21`, the inhibition in [1] was -5.64%; in assay [7] it was 4.93%; in assay [4] it was 6.35%; in assay [5] (Hit No), -6.21%; in assay [8] it was -0.256%.
Take `O=C(NCc1cccnc1OCC(F)(F)F)c1cncc(-c2ccc(Cl)cc2)c1`: the inhibition in assay [1] was 2%; in assay [2], -0.35%; in assay [3] (Hit No) it was -3.23%; in [7], -9.96%; in assay [4], 0.568%; in assay [5] (Hit No) it was -5.85%. In addition, the inhibition in assay [8] is 3.98%; in assay [9] it was -4.73%.
Regarding `O=C1NCCc2c(OCCCCN3CCCCC3)cccc21`, the inhibition is -7.35% in assay [1]; 3.98% in [2]; 2.31% in assay [7]; 23.7% in [4]; -4.57% in [5] (Hit No); -7.4% in assay [6] (Hit No). Further, the values for the inhibition in assay [8] and in assay [9] were -4.06% and 5.05%, respectively.
As to `COC1CCN(c2cccc(-c3cc(NC(C)=O)nc(-n4nc(C)cc4C)n3)n2)CC1`, the inhibition in assay [1] was 6.5%; in assay [2] it was 2.26%; in assay [7], -4.26%; in [4] it was 12.2%; in assay [6] (Hit No), -4.31%; in assay [8] it was -3.39%.
Turning to `Cc1cc(NC(=O)Nc2ccccc2)n(-c2ccccc2)n1`, the inhibition in assay [1] was determined as 3.86%; in assay [2] it was 7.29%; in assay [3] (Hit No), 0.777%; in assay [7], 0.993%; in assay [4], 10.5%; in assay [5] (Hit No), 1.74%. For the same molecule, the values for the inhibition in assay [8] and in assay [9] were 5.78% and 1.64%, respectively.
As to `O=C1CSC(=O)N1C(CCc1ccncc1)COc1ccc(-c2cccc([N+](=O)[O-])c2)cc1` (stereo not drawn), the inhibition was -5.43% in assay [1]; 3.73% in assay [2]; 6.99% in [3] (Hit No); 17.1% in [4]; -2.95% in assay [5] (Hit No); -1.32% in [6] (Hit No). The values for the inhibition in assay [8] and in assay [9] were -8.91% and 2.68%, respectively.
On to `Cc1nnsc1C(=O)Nc1ccc(-n2nc(C(F)(F)F)cc2C(F)(F)F)cc1`, for which the inhibition is -1.63% in assay [1]; 0.414% in assay [2]; 15.8% in assay [3] (Hit No); 14.6% in [4]; -0.15% in assay [5] (Hit No); 15.7% in assay [6] (Hit No). Moreover, in assay [9], the inhibition worked out at 0.306%.
With `CN1[C@@H](CC(=O)c2ccccc2)CCC[C@H]1C[C@H](O)c1ccccc1`, the inhibition was -4.83% in assay [1]; 1.46% in [3] (Hit No); -8.51% in assay [4]; -4.79% in assay [5] (Hit No); -6.7% in assay [6] (Hit No); -5.94% in [8]. Also, the inhibition in [9] was 1.64%.
Regarding `CNc1nc(NCc2ccc(NS(C)(=O)=O)cc2Cl)cc(-c2ccccn2)n1`, the inhibition was -5.26% in assay [1]; 7.25% in assay [2]; 11.2% in assay [3] (Hit No); -9.07% in [4]; -9.82% in assay [5] (Hit No); 15% in assay [6] (Hit No). Besides, the inhibition was 18.1% in assay [8] and 3.5% in [9].
